# In article PMC3983201, “6-Methoxyflavanones as Bitter Taste Receptor Blockers for hTAS2R39” (PLoS ONE, 2014):
# Biological target: T1, hTAS2R14 (Homo sapiens, UniProt Q9NYV8)
# T1 construct: first 45 amino acids of rat somatostatin receptor type 3 (sst3 membrane-targeting tag) (N); expressed in transfected cells; host or cells: HEK293 T-Rex Flp-In cells stably expressing Gα16-gust44; induced with doxycycline
# T1 sequence (Q9NYV8 1-317): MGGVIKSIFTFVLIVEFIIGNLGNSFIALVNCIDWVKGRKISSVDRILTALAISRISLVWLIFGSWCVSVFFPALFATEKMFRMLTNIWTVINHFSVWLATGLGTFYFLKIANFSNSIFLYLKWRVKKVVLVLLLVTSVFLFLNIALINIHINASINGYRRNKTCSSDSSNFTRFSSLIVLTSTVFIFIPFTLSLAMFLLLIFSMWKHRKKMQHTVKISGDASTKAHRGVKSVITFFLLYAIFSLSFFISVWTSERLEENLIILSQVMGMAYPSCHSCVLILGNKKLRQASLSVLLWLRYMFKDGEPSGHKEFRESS
# Experiment: Calcium assay of hTAS2R14 activation/inhibition in HEK293 T-Rex Flp-In cells
# Assay type: cell-based
# Conditions: for IC50, Simultaneous / Threshold, Simultaneous: simultaneous addition, n.b. = no blocking; for IC50 / Threshold, Stepwise: stepwise addition
# Excerpt: For functional expression of the human bitter taste receptor hTAS2R39, HEK293 T-Rex Flp-In cells (Invitrogen, San Diego, CA, USA) were used, stably expressing the chimeric G-protein α-subunit Gα16-gust44 (cloned into pcDNA4 (Invitrogen)) and the human bitter receptor genes for hTAS2R39 (cloned into pcDNA5/FRT (Invitrogen)). The bitter receptor gene contained a DNA sequence encoding the first 45 amino acids of rat somatostatin receptor type 3 at its 5′ end (the receptor expression was achieved according to [18] with exception of the HSV-tag), in order to improve membrane targeting of the receptor protein. The same procedure was applied for stable expression of hTAS2R14. Cells were maintained in Dulbecco's Modified Eagle's Medium (DMEM) and 10% (v/v) tetracycline-free FBS (both Lonza, Verviers, Belgium) supplemented with blasticidin (5 μg/mL), geneticin (400 μg/mL) and hygromycin (100 μg/mL) (all from Invitrogen). Cells were grown and maintained at 37 °C and 5% (v/v) CO2.
# Cells were seeded into poly-L-lysine-coated (Sigma-Aldrich) 96-well plates (black wall, clear bottom, Greiner bio-one, Frickenhausen, Germany) at a density of 7*10^3 cells in 100 μL/well and cultured for 24 h. Transcription of the receptors was induced by adding 0.25 μg/mL doxycycline (Sigma-Aldrich). […] One hour after loading, cells were washed with Tyrode's buffer and taken up in Tyrode's buffer. Stock solutions of test compounds were prepared in DMSO and diluted to the appropriate concentration in Tyrode's buffer, not exceeding a DMSO concentration of 1% (v/v).
# Two methods of compound administration were applied: simultaneous and stepwise addition of potential antagonist and agonist. The first 17 s before compound addition were used for baseline determination. For the simultaneous method, agonist and potential antagonist were pre-mixed, administered after 17 s, and fluorescence was measured for in total 90 s. For the stepwise method, after 17 s, the potential antagonist was added, fluorescence was measured until 120 s, and after 120 s the agonist was added and measured for another 120 s, in total 240 s. […] Each experiment was performed at least in duplicate in separate experiments (as indicated for each figure).
# Data processing was done as reported previously. In brief, SoftMax Pro 5.4 software (Molecular Devices Corporation) was used to plot the fluorescence signals. The fluorescence value (ΔF/F0), representing receptor activity, was calculated by subtracting the baseline fluorescence (F0) prior to loading from the maximum fluorescence (F) after compound addition, divided by the signal of the baseline in order to normalize background fluorescence. Dose-response curves were established as non-linear regression curves using Graph Pad Prism (version 4 for Windows, Graph Pad Software, San Diego, CA, USA). Half-maximal effective concentrations (EC50) and half-maximal inhibitory concentrations (IC50) were calculated. Error bars reflect the standard error of the mean (SEM). Statistical analysis was performed in Graph Pad Prism (one-way ANOVA at 5% risk level, followed by Bonferroni's post hoc test).
# Inhibition was indicated when [drawing 1] . In case of indicated inhibition, flavanones were applied at different concentrations, in order to test for dose-dependent inhibition, at the EC80 concentration of the agonist. […] To investigate the specificity of flavanones for inhibition of hTAS2R39 and hTAS2R14, another bitter taste receptor, hTAS2R16 (not known to be activated by flavonoids), was used in inhibition experiments ( File S3 ) towards its agonist salicin.
# [1] = inhibition of hTAS2R14 response to 70 μM genistein
# [2] = inhibition of hTAS2R14 response to 640 μM ECG
SMILES,"blocking of hTAS2R14 (640 μM ECG, simultaneous application)","inhibition of hTAS2R14 (640 μM ECG, stepwise application)","IC50, Simultaneous [1]","Threshold, Simultaneous [1]",IC50 [1],"Threshold, Stepwise [1]","IC50, Simultaneous [2]","Threshold, Simultaneous [2]",IC50 [2],"Threshold, Stepwise [2]","inhibition of hTAS2R14 by probenecid in the buffer (0.5 mM probenecid in Tyrode's buffer, agonist equol)"
"COc1ccc2c(c1)C(=O)CC(c1ccc(F)cc1)O2 (stereo not shown) [Compound 6, 4′-Fluoro-6-methoxyflavanone]",no blocking,an inhibitory effect was observed,n.b.,n.b.,~500 µM,32 µM,n.b.,n.b.,79 ± 25 µM,<8 µM,–
"CCCN(CCC)S(=O)(=O)c1ccc(C(=O)O)cc1 [probenecid, p-(dipropylsulfamyl)benzoic acid, reference compound]",–,–,–,–,–,–,–,–,–,–,did not lead to inhibition
"COc1ccc2c(c1)C(=O)CC(c1ccccc1)O2 (stereo not shown) [Compound 11, 6-Methoxyflavanone]",–,–,n.b.,n.b.,741 ± 143 µM,500 µM,n.b.,n.b.,447 ± 123 µM,250 µM,–
